One block for each molecule: values may come before it.
How the values were obtained:
BACE1 = BACE1 (Homo sapiens, UniProt P56817); experiment: In vitro enzymatic BACE FRET (fluorescence resonance energy transfer) assay; assay type: biochemical
Summary of the method: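 Fluorescence (ex 488 nm, […]) was read after Tris addition raised pH to neutral, ending a one-hour incubation. Reaction started with 50 nM fluorophore/quencher peptide substrate in pH 4.2 acetate (0.05 M) containing 100 uM genapol and 10% DMSO final.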

[1] = test system: Cells stably expressing Amyloid Precursor Protein (APP); experiment: In vitro BACE cell-based assay (HEK cell assay): Aβ40 in conditioned medium by sandwich ELISA; details: Aβ40 in conditioned medium after 24 h incubation
Summary of the method: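 Secreted Aβ40 was quantified by time-resolved fluorescence sandwich ELISA, capturing with pAb40 for 3 h at 4 °C and detecting with biotinylated 6E10 for 2 h at 4 °C. Media came from APP-expressing cells exposed 24 h to compounds (10-point series from 100 or 10 μM, 0.1% DMSO); IC50 derived from percent of control.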

BACE1, sequence (P56817 46-501, species assumed): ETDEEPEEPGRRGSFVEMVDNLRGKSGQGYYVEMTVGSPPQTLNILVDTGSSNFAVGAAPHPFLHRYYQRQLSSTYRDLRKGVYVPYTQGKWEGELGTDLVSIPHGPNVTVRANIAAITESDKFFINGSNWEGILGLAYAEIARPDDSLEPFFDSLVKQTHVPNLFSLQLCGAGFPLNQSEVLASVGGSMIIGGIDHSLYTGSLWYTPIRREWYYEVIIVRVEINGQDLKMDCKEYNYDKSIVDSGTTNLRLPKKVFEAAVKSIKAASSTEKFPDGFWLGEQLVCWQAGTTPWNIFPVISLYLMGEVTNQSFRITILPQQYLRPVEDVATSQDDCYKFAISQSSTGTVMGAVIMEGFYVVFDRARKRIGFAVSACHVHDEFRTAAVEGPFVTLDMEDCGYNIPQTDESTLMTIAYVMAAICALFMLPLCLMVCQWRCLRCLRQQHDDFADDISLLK

SMILES: C=CC[C@H](NC(=O)c1cc(F)cc(F)c1F)[C@H](O)CN[C@H]1CC2(CCC2)Oc2ncc(CC(C)(C)C)cc21 [Example 74, N-((1S)-1-((1R)-2-(((4′S)-6′-(2,2-dimethylpropyl)-3′,4′-dihydrospiro[cyclobutane-1,2′-pyrano[2,3-b]pyridin]-4′-yl)amino)-1-hydroxyethyl)-3-buten-1-yl)-2,3,5-trifluorobenzamide]
IC50 (BACE1): 0.305 µM
IC50 ([1]; Homo sapiens, HEK293, 24 h): 1.62 µM

SMILES: C=CC[C@H](NC(=O)c1c(F)cc(F)cc1F)[C@H](O)CN[C@H]1CC2(CCC2)Oc2ncc(CC(C)(C)C)cc21 [Example 78, N-((1S)-1-((1R)-2-(((4′S)-6′-(2,2-dimethylpropyl)-3′,4′-dihydrospiro[cyclobutane-1,2′-pyrano[2,3-b]pyridin]-4′-yl)amino)-1-hydroxyethyl)-3-buten-1-yl)-2,4,6-trifluorobenzamide]
IC50 (BACE1): 0.641 µM
IC50 ([1]; Homo sapiens, HEK293, 24 h): 3 µM

SMILES: C=CC[C@H](NC(=O)COC(C)(C)C)[C@H](O)CN[C@H]1CC2(CCC2)Oc2ncc(CC(C)(C)C)cc21 [Example 144, 2-((1,1-dimethylethyl)oxy)-N-((1S)-1-((1R)-2-(((4′S)-6′-(2,2-dimethylpropyl)-3′,4′-dihydrospiro[cyclobutane-1,2′-pyrano[2,3-b]pyridin]-4′-yl)amino)-1-hydroxyethyl)-3-buten-1-yl)acetamide]
IC50 (BACE1): 0.344 µM
IC50 ([1]; Homo sapiens, HEK293, 24 h): 1.13 µM

SMILES: C#CC[C@H](NC(=O)COC)[C@H](O)CN[C@H]1CC2(CCC2)Oc2ncc(CC(C)(C)C)cc21 [Example 85, N-((1S)-1-((1R)-2-(((4′S)-6′-(2,2-dimethylpropyl)-3′,4′-dihydrospiro[cyclobutane-1,2′-pyrano[2,3-b]pyridin]-4′-yl)amino)-1-hydroxyethyl)-3-butyn-1-yl)-2-(methyloxy)acetamide]
IC50 (BACE1): 0.049 µM
IC50 ([1]; Homo sapiens, HEK293, 24 h): 0.511 µM

SMILES: CC(=O)N[C@@H](CC=C1CCC1)[C@H](O)CN[C@H]1CC2(CCC2)Oc2ncc(CC(C)(C)C)cc21 [Example 83, N-((1S,2R)-1-(2-cyclobutylideneethyl)-3-(((4′S)-6′-(2,2-dimethylpropyl)-3′,4′-dihydrospiro[cyclobutane-1,2′-pyrano[2,3-b]pyridin]-4′-yl)amino)-2-hydroxypropyl)acetamide]
IC50 (BACE1): 0.011 µM
IC50 ([1]; Homo sapiens, HEK293, 24 h): 0.018 µM

SMILES: C=C(C)C[C@H](NC(=O)CF)[C@H](O)CN[C@H]1CC2(CCC2)Oc2ncc(CC(C)(C)C)cc21 [Example 100, N-((1S)-1-((1R)-2-(((4′S)-6′-(2,2-dimethylpropyl)-3′,4′-dihydrospiro[cyclobutane-1,2′-pyrano[2,3-b]pyridin]-4′-yl)amino)-1-hydroxyethyl)-3-methyl-3-buten-1-yl)-2-fluoroacetamide]
IC50 (BACE1): 3.65 µM
IC50 ([1]; Homo sapiens, HEK293): 3.33 µM

SMILES: C=CC[C@H](NC(=O)OCc1cncs1)[C@H](O)CN[C@H]1CC2(CCC2)Oc2ncc(CC(C)(C)C)cc21 [Example 105, 1,3-thiazol-5-ylmethyl ((1S)-1-((1R)-2-(((4′S)-6′-(2,2-dimethylpropyl)-3′,4′-dihydrospiro[cyclobutane-1,2′-pyrano[2,3-b]pyridin]-4′-yl)amino)-1-hydroxyethyl)-3-buten-1-yl)carbamate]
IC50 (BACE1): 0.396 µM
IC50 ([1]; Homo sapiens, HEK293, 24 h): 1.16 µM

SMILES: CC=CC[C@H](NC(C)=O)[C@H](O)CN[C@H]1CC2(CC(F)C2)Oc2ncc(CC(C)(C)C)cc21 (stereo partly drawn) [Example 109, N-((1S)-1-((1R)-2-(((1s,3S,4′S)-6′-(2,2-dimethylpropyl)-3-fluoro-3′,4′-dihydrospiro[cyclobutane-1,2′-pyrano[2,3-b]pyridin]-4′-yl)amino)-1-hydroxyethyl)-3-penten-1-yl)acetamide]
IC50 (BACE1): 0.037 µM
IC50 [1]: 0.062 µM

SMILES: C=CC[C@H](NC(=O)COC)[C@H](O)CN[C@H]1CC2(CCC2)Oc2ncc([C@H](F)C(C)(C)C)cc21 [Example 82, N-((1S)-1-((1R)-2-(((4′S)-6′-((1R)-1-fluoro-2,2-dimethylpropyl)-3′,4′-dihydrospiro[cyclobutane-1,2′-pyrano[2,3-b]pyridin]-4′-yl)amino)-1-hydroxyethyl)-3-buten-1-yl)-2-(methyloxy)acetamide]
IC50 (BACE1): 0.069 µM
IC50 ([1]; Homo sapiens, HEK293, 24 h): 0.216 µM

Second part, the molecule after the results:

IC50 (BACE1): 0.154 µM
IC50 ([1]; Homo sapiens, HEK293, 24 h): 2.36 µM
SMILES: C=CC[C@H](NC(=O)c1ccc2c(c1)OC(F)(F)O2)[C@H](O)CN[C@H]1CC2(CCC2)Oc2ncc(CC(C)(C)C)cc21 [Example 104, N-((1S)-1-((1R)-2-(((4′S)-6′-(2,2-dimethylpropyl)-3′,4′-dihydrospiro[cyclobutane-1,2′-pyrano[2,3-b]pyridin]-4′-yl)amino)-1-hydroxyethyl)-3-buten-1-yl)-2,2-difluoro-1,3-benzodioxole-5-carboxamide]

IC50 (BACE1): 0.199 µM
IC50 ([1]; Homo sapiens, HEK293, 24 h): 0.517 µM
SMILES: C=CC[C@H](NC(=O)c1cccnc1F)[C@H](O)CN[C@H]1CC2(CCC2)Oc2ncc(CC(C)(C)C)cc21 [Example 67, N-((1S)-1-((1R)-2-(((4′S)-6′-(2,2-dimethylpropyl)-3′,4′-dihydrospiro[cyclobutane-1,2′-pyrano[2,3-b]pyridin]-4′-yl)amino)-1-hydroxyethyl)-3-buten-1-yl)-2-fluoro-3-pyridinecarboxamide]

IC50 (BACE1): 0.115 µM
IC50 ([1]; Homo sapiens, HEK293, 24 h): 0.194 µM
SMILES: C=CC[C@H](NC(=O)[C@H](F)C(F)(F)F)[C@H](O)CN[C@H]1CC2(CCC2)Oc2ncc(CC(C)(C)C)cc21 [Example 138, (2S)-N-((1S)-1-((1R)-2-(((4′S)-6′-(2,2-dimethylpropyl)-3′,4′-dihydrospiro[cyclobutane-1,2′-pyrano[2,3-b]pyridin]-4′-yl)amino)-1-hydroxyethyl)-3-buten-1-yl)-2,3,3,3-tetrafluoropropanamide]

IC50 (BACE1): 2.89 µM
IC50 ([1]; Homo sapiens, HEK293, 24 h): 0.539 µM
SMILES: C=CC[C@H](NC(=O)[C@H](F)c1ccccc1)[C@H](O)CN[C@H]1CC2(CCC2)Oc2ncc(CC(C)(C)C)cc21 [Example 143, (2R)-N-((1S)-1-((1R)-2-(((4′S)-6′-(2,2-dimethylpropyl)-3′,4′-dihydrospiro[cyclobutane-1,2′-pyrano[2,3-b]pyridin]-4′-yl)amino)-1-hydroxyethyl)-3-buten-1-yl)-2-fluoro-2-phenylethanamide]

IC50 (BACE1): 0.137 µM
IC50 ([1]; Homo sapiens, HEK293, 24 h): 1.3 µM
SMILES: C=CC[C@H](NC(=O)c1csc(F)c1)[C@H](O)CN[C@H]1CC2(CCC2)Oc2ncc(CC(C)(C)C)cc21 [Example 135, N-((1S)-1-((1R)-2-(((4′S)-6′-(2,2-dimethylpropyl)-3′,4′-dihydrospiro[cyclobutane-1,2′-pyrano[2,3-b]pyridin]-4′-yl)amino)-1-hydroxyethyl)-3-buten-1-yl)-5-fluoro-3-thiophenecarboxamide]

IC50 (BACE1): 0.131 µM
IC50 ([1]; Homo sapiens, HEK293, 24 h): 0.228 µM
SMILES: C=CC[C@H](NC(=O)c1cccnn1)[C@H](O)CN[C@H]1CC2(CCC2)Oc2ncc(CC(C)(C)C)cc21 [Example 57, N-((1S)-1-((1R)-2-(((4′S)-6′-(2,2-dimethylpropyl)-3′,4′-dihydrospiro[cyclobutane-1,2′-pyrano[2,3-b]pyridin]-4′-yl)amino)-1-hydroxyethyl)-3-buten-1-yl)-3-pyridazinecarboxamide]

IC50 (BACE1): 0.226 µM
IC50 ([1]; Homo sapiens, HEK293, 24 h): 1.04 µM
SMILES: C=CC[C@H](NC(=O)c1cocn1)[C@H](O)CN[C@H]1CC2(CCC2)Oc2ncc(CC(C)(C)C)cc21 [Example 129, N-((1S)-1-((1R)-2-(((4′S)-6′-(2,2-dimethylpropyl)-3′,4′-dihydrospiro[cyclobutane-1,2′-pyrano[2,3-b]pyridin]-4′-yl)amino)-1-hydroxyethyl)-3-buten-1-yl)-1,3-oxazole-4-carboxamide]

IC50 (BACE1): 0.125 µM
IC50 ([1]; Homo sapiens, HEK293, 24 h): 0.349 µM
SMILES: C=CC[C@H](NC(=O)c1ccccc1)[C@H](O)CN[C@H]1CC2(CCC2)Oc2ncc(CC(C)(C)C)cc21 [Example 59, N-((1S)-1-((1R)-2-(((4′S)-6′-(2,2-dimethylpropyl)-3′,4′-dihydrospiro[cyclobutane-1,2′-pyrano[2,3-b]pyridin]-4′-yl)amino)-1-hydroxyethyl)-3-buten-1-yl)benzamide]

IC50 (BACE1): 0.198 µM
IC50 ([1]; Homo sapiens, HEK293, 24 h): 0.277 µM
SMILES: C=CC[C@H](NC(=O)[C@H]1CC1(F)F)[C@H](O)CN[C@H]1CC2(CCC2)Oc2ncc(CC(C)(C)C)cc21 [Example 139, (1R)-N-((1S)-1-((1R)-2-(((4′S)-6′-(2,2-dimethylpropyl)-3′,4′-dihydrospiro[cyclobutane-1,2′-pyrano[2,3-b]pyridin]-4′-yl)amino)-1-hydroxyethyl)-3-buten-1-yl)-2,2-difluorocyclopropanecarboxamide]

IC50 (BACE1): 0.216 µM
IC50 ([1]; Homo sapiens, HEK293, 24 h): 2.54 µM
SMILES: C=CC[C@H](NC(=O)c1cccc2c1OCO2)[C@H](O)CN[C@H]1CC2(CCC2)Oc2ncc(CC(C)(C)C)cc21 [Example 103, N-((1S)-1-((1R)-2-(((4′S)-6′-(2,2-dimethylpropyl)-3′,4′-dihydrospiro[cyclobutane-1,2′-pyrano[2,3-b]pyridin]-4′-yl)amino)-1-hydroxyethyl)-3-buten-1-yl)-1,3-benzodioxole-4-carboxamide]

IC50 (BACE1): 0.033 µM
IC50 ([1]; Homo sapiens, HEK293, 24 h): 1.56 µM
SMILES: C=CC[C@H](NC(=O)[C@@H](F)c1ccccc1)[C@H](O)CN[C@H]1CC2(CCC2)Oc2ncc(CC(C)(C)C)cc21 [Example 142, (2S)-N-((1S)-1-((1R)-2-(((4′S)-6′-(2,2-dimethylpropyl)-3′,4′-dihydrospiro[cyclobutane-1,2′-pyrano[2,3-b]pyridin]-4′-yl)amino)-1-hydroxyethyl)-3-buten-1-yl)-2-fluoro-2-phenylethanamide]

IC50 (BACE1): 0.179 µM
IC50 ([1]; Homo sapiens, HEK293, 24 h): 0.071 µM
SMILES: C=CC[C@H](NC(=O)c1ccc(F)nc1)[C@H](O)CN[C@H]1CC2(CCC2)Oc2ncc(CC(C)(C)C)cc21 [Example 66, N-((1S)-1-((1R)-2-(((4′S)-6′-(2,2-dimethylpropyl)-3′,4′-dihydrospiro[cyclobutane-1,2′-pyrano[2,3-b]pyridin]-4′-yl)amino)-1-hydroxyethyl)-3-buten-1-yl)-6-fluoro-3-pyridinecarboxamide]

From US8633315B2, “Substituted hydroxyethyl amine compounds as beta-secretase modulators and methods of use” (Amgen Inc., priority 2007, dated 2014)
